{"source": "patent US20260327250A1", "about": "“3-ETHYLAMINO-INDOLE DIMERS AS SEROTONERGIC AGENTS USEFUL FOR THE TREATMENT OF DISORDERS RELATED THERETO” (MINDSET PHARMA INC., priority 2022, published 2026)", "key": {"[1]": {"test": "in vitro", "settings": "dog, plasma", "procedure": "The stock solution of test compound was prepared in DMSO and diluted at the final concentration of 200 μM.\n• a. 2.5 μL of 200 μM or 1 mM test compound or control compound solution was spiked to 497.5 μL plasma to reach a final concentration of 1 μM or 5 μM. The final concentration of organic solvents was 0.5%. The assay was performed in duplicated. • b. The reaction samples were incubated at 37° C. at approximately 60 rpm in a water bath. • c. Aliquots of 50 μL were taken from the reaction samples at 0, 30, 60, 120, 180 and 240 minutes. The reaction was stopped by the addition of 7 volumes of cold acetonitrile containing internal standards (IS: 100 nM alprazolam, 200 nM imipramine, 200 nM labetalol and 2 μM ketoprofen). • d. All samples were vortexed for 2 minutes, followed by centrifugation at 3,220 g for 30 minutes to precipitate proteins. 100 μL of the supernatant was transferred to a new plate. The supernatant was diluted with ultrapure water according to the LC-MS signal response and peak shape.\nSamples were Analyzed by LC-MS/MS. • LC system: Shimadzu • MS analysis: Triple Quad™ 6500+ from AB Inc (Canada) with an ESI interface • Column temperature: 40° C. • Column: Xselect® Hss T3 2.5μ (2.1×30 mm) coupled with preguard column • Mobile phase: 0.1% formic acid in water (A) and 0.1% formic acid in acetonitrile (B)\nAll calculations were carried out using Microsoft Excel. Remaining percentages of parent compounds at each time point were estimated by determining the peak area ratios from extracted ion chromatograms."}, "[2]": {"test": "Intestinal mucosal permeation using Caco-2 cell monolayers", "settings": "human", "procedure": "The Caco-2 cell culture medium was prepared consisting of Dulbecco's Modified Eagle's Medium (DMEM) with high glucose and L-glutamine supplemented with 10% FBS, 1× penicillin-streptomycin mixture and 1× non-essential amino acids (NEAA). • 2. The 50 μL of culture medium was added to each well of the Transwell insert. Transwell insert was removed from reservoir and 25 mL of culture medium was added. • 3. Incubated at 37° C., 5% CO2 for 1 hour. Plates were ready for cell seeding. • 4. The cells were cultivated in T-75 flasks in a cell culture incubator set at 37° C., 5% CO2, 95% relative humidity. The cells were allowed to reach 80-90% confluence before detaching and splitting. • 5. The cultivated cells were rinsed in T-75 flasks with 5 mL PBS. Aspirated off, 1.5 mL trypsin/EDTA was added, and incubated at 37° C. for approximately 5 to 10 minutes or until the cells detach and float. Trypsin/EDTA was inactivated by adding excess serum containing medium. • 6. The cell suspension was moved to a conical tube and cells were pelleted by centrifugation at 120×g for 10 minutes. • 7. The cells were resuspended in seeding medium at a density of 6.86×10^5 cells/mL. This cell concentration can be used to seed 2.40×10^5 cells/cm^2. […] Seeding and Feeding of Caco-2 Cells in Transwell Plates • 1. 50 μL of above cell suspension was added to each well of a previously prepared Transwell plate. • 2. The plate was incubated for 14-18 days. The medium was replaced every other day, beginning no sooner than 48 hours after initial plating. • 3. The procedure for medium changes was as follows. The plate was removed from incubator and placed in hood. The medium was aspirated from reservoir and each Transwell insert. 75 μL of culture medium was added to each well of Transwell inserts and 25 mL of culture medium was added to reservoir tray. The plate was returned to incubator.\nWhen the 14-day Caco-2 cultured cells have reached confluence and are differentiated, they were ready to be used for transport studies. • 2. The medium was removed from reservoir and Transwell inserts. • 3. 75 μL of pre-warmed culture medium was added to each transwell insert and 25 mL of reservoir tray. • 4. The electrical resistance across the monolayer was measured using automated tissue resistance measuring system (World Precision Instruments, Sarasota, FL). • 5. The electrical resistance was recorded for each well. • 6. Once all wells were measured, the plate was returned to incubator. • 7. TEER of each well was calculated by the equation below. The TEER value of each well should be greater than 230 ohms-cm^2. TEER measurement (ohms)×Area of membrane (cm^2)=TEER value (ohm-cm^2)\nThe Caco-2 plate was removed from the incubator. Next, the monolayer was washed, and the volume exchanged two times using pre-warmed HBSS (10 mM HEPES, pH 7.4). Then the plate was incubated for 30 minutes at 37° C. • 1 mM stock solutions of control compounds and test compound(s) were prepared in DMSO and diluted with HBSS (10 mM HEPES, pH 7.4) to reach the final concentration of 5 μM. The final concentration of DMSO in the incubation system was 0.5%. Digoxin, prazosin and propranolol were used as control compounds in this assay. • 3. HBSS (10 mM HEPES, pH 7.4) was removed after 30 minutes pre-incubation. • 4. The rate of drug transport was incubated in the apical to basolateral direction. 75 μL of the control compounds and test compound was added to the Transwell insert (apical compartment). The wells were filled in the receiver plate (basolateral compartment) with 235 μL of HBSS (10 mM HEPES, pH 7.4). • 5. The rate of drug transport was determined in the basolateral to apical direction. 235 μL of the control compounds and test compound(s) was added to the receiver plate wells (basolateral compartment). The Transwell insert (apical compartment) was filled with 75 μL of HBSS (10 mM HEPES, pH 7.4). • 6. […] Incubated at 37° C. for 2 hours. • 8."}, "[3]": {"system": "5-HT2 receptor", "settings": "rat brain, daily administration; cited from earlier work"}}, "note": "Where a name gives a salt, the structure may show the parent alone.", "data": [{"smiles": "CN(C)CCc1c[nH]c2cccc(OC(=O)CCCC(=O)Oc3cccc4[nH]cc(CCN(C)C)c34)c12", "note": "[Compound I-24, Bis(3-(2-(dimethylamino)ethyl)-1H-indol-4-yl) glutarate]", "values": [{"measurement": "half-life", "setting": "[1]", "result": 19, "unit": "min"}, {"measurement": "remaining at 0.5 h", "setting": "[1]", "result": 32.9, "unit": "%"}, {"measurement": "remaining at 1 h", "setting": "[1]", "result": 11.2, "unit": "%"}, {"measurement": "remaining at 2 h", "setting": "[1]", "result": 0, "unit": "%"}, {"measurement": "remaining at 3 h", "setting": "[1]", "result": 0, "unit": "%"}, {"measurement": "remaining at 4 h", "setting": "[1]", "result": 0, "unit": "%"}]}, {"smiles": "CC(C)N(CCc1c[nH]c2cccc(OC(=O)CCCC(=O)Oc3cccc4[nH]cc(CCN(C(C)C)C(C)C)c34)c12)C(C)C", "note": "[Compound I-37, Bis(3-(2-(diisopropylamino)ethyl)-1H-indol-4-yl) glutarate dihydrochloride]", "values": [{"measurement": "Papp A→B at 2 h, 5 µM", "setting": "[2]; Caco-2, pH 7.4", "result": 0.54, "unit": "×10⁻⁶ cm/s"}, {"measurement": "Papp B→A at 2 h, 5 µM", "setting": "[2]; Caco-2, pH 7.4", "result": 11.3, "unit": "×10⁻⁶ cm/s"}, {"measurement": "efflux ratio at 2 h, 5 µM", "setting": "[2]; Caco-2, pH 7.4", "result": 21}, {"measurement": "recovery at 2 h, 5 µM", "setting": "[2]; Caco-2, pH 7.4, Percentage recovery A→B, apical to basolateral", "result": 74.9, "unit": "%"}, {"measurement": "recovery at 2 h, 5 µM", "setting": "[2]; Caco-2, pH 7.4, Percentage recovery B→A, basolateral to apical", "result": 107, "unit": "%"}]}, {"smiles": "CN(C)CCc1c[nH]c2cccc(OP(=O)(O)O)c12", "note": "[Psilocybin]", "values": [{"measurement": "5-HT2 receptor density", "setting": "[3]", "result": "reduce 5-HT2 receptor density in rat brain"}]}]}
